# Measurements taken from US20240027453A1, “METHOD FOR DETECTION AND QUANTITATIVE MONITORING OF INFECTIONS WITH HERPESVIRUSES” (The Trustees of Princeton University, priority 2020, published 2024).
# Where two headings read alike, the source gives them in different places.
# System: HCMV
# Format: cell-based
# Experimental: In example herpesvirus PRM assay methods shown herein, cell pellets were lysed in 2% SDS, 100 mM NaCl, 0.5 mM EDTA, 50 mM Tris, pH 8.2, and 50 μg of protein was reduced and alkylated with 25 mM TCEP and 50 mM CAM respectively for 20 min at 70° C. Proteins were then precipitated via methanol chloroform precipitation (Wessel & Flugg, Anal Biochem. 138(1):141-143, 1984), resuspended in 50 mM HEPES, pH 8.2 and digested overnight with trypsin (50:1 protein:enzyme w/w ratio). Digested peptides were desalted by SDB-RPS StageTip as previously described (Lum et al., Cell Syst., 7(6):[…], 2018; Greco et al., Methods Mol Biol 1410:39-63, 2016; Federspiel & Cristea, Methods Mol Biol., 1977:115-143, 2019).
# Peptides (1.0 μg on column) were analyzed by LC-MS/MS using a Dionex Ultimate 3000 UHPLC coupled online to an EASYSpray ion source and a Q Exactive HF. Peptides were separated on an EASYSpray C18 column (75 μm×25 cm) heated to 50° C. using a linear gradient of 5% B to 32% B over 60 min at a flow rate of 250 nL/min and were ionized at 1.7 kv. Mobile phase A consisted of 0.1% FA in H2O and mobile phase B consisted of 0.1% FA, 2.9% H2O in ACN.
# The PRM method was controlled by a peptide inclusion list with retention time windows of 6 min for selected precursor ions.
# The PRM assay was developed and analyzed using the open-source software Skyline (Maclean et al., Bioinformatics 26(7):966-968, 2010). Summed area under the curve of 3-4 transitions per peptide was used for quantitation. Targeted peptides were normalized to host protein loading control peptides. Peptide values for each sample were scaled to the average of each peptide across all runs. The average of multiple peptides was used as the inferred value for the protein measurement when more than one peptide was quantified (Federspiel et al., PLoS Biol. 17(9):e3000437. Doi: 10.1371/journal.pbio.3000437). PRM quantitation data were graphed using the Python Seaborn and Matplotlib libraries.
# MRC5 primary human fibroblasts (HFs) (ATCC CCL-171) were used as the model system for HSV-1 and HCMV infections and were cultured in complete growth medium (DMEM supplemented with 10% fetal bovine serum and 1% penicillin-streptomycin antibiotics) at 37° C. and 5% CO2. iSLK.219 cells harboring latent KSHV (a gift from Dr. Britt Glaunsinger, University of California, Berkeley) were grown in complete growth medium supplemented with 500 μg/ml hygromycin (ThermoFisher Scientific, 10687010) at 37° C. and 5% CO2. All cells were used for experiments within a maximum of 10 passages.
# Wild type HSV-1 strain 17+ (a gift from Beate Sodeik, Hannover Medical School, Hannover, Germany) was propagated as previously described (Diner et al., 2015). Briefly, PO stocks were generated by electroporating pBAC-HSV-1 into U-2 OS cells. […] In a similar manner, wild type HCMV strain AD169 was produced from BAC electroporation into HFs and working stocks were propagated by infecting HFs at a low level. In both cases, cell-associated virus was released by sonication, combined with supernatant virus, then concentrated by ultracentrifugation (20,000 rpm, 2 hours, 4° C. with SW28 swinging bucket rotor [Beckman Coulter]) over a 10% ficoll (HSV-1) or 20% sorbitol (HCMV) cushion. Virus stock titers were determined by plaque assay for HSV-1 or tissue culture infectious dose (TCID50) for HCMV and infections were performed at a multiplicity of infection (MOI) of 3.
# 12 hours prior to virus infection or reactivation, cells were treated with either the small molecule drug or DMSO/PBS control at an equivalent volume. […] For infection cycles lasting longer than 24 hours, small molecule drugs were re-added to the cell culture medium every 24 hours. Upon collection, cells were rinsed with PBS, scraped into a microcentrifuge tube, pelleted by centrifugation, and rinsed again with PBS.
smiles,measurement,setting,value
"Nc1ccn(C[C@@H](CO)OCP(=O)(O)O)c(=O)n1 [CDV, cidofovir]",HCMV late gene expression,,reduction
same,HCMV protein levels across all temporal classes of gene expression,1 μM,substantial decreases
same,impact on HCMV IE genes compared to other gene classes,1 μM,relatively less impacted
same,decrease of HCMV protein UL54,"1 μM, across all time points",less than 20%
same,decrease in HCMV protein levels compared to PBS control,"1 μM, by 72 HPI, in more than 85% of the proteins monitored",at least 35%
same,decrease in abundance of HCMV IE protein UL122,"1 μM, by 120 HPI",~70%
same,"DBP (P17147) protein, numerical value of heatmap FIG. 6C","DE, timepoint 24",0.04283
same,"HELI (P16736) protein, numerical value of heatmap FIG. 6C","DE, timepoint 24",0.1024
same,"NEC2 (P16791) protein, numerical value of heatmap FIG. 6C","DE, timepoint 24",0.0159
same,"RIR1 (P16782) protein, numerical value of heatmap FIG. 6C","DE, timepoint 24",0.04961
same,"UL26 (P16762) protein, numerical value of heatmap FIG. 6C","DE, timepoint 24",0.04954
same,"UL32 (P08318) protein, numerical value of heatmap FIG. 6C","DE, timepoint 24",0.01616
same,"UL34 (P16812) protein, numerical value of heatmap FIG. 6C","DE, timepoint 24",0.05376
same,"UL38 (P16779) protein, numerical value of heatmap FIG. 6C","DE, timepoint 24",0.5007
same,"UL44 (P16790) protein, numerical value of heatmap FIG. 6C","DE, timepoint 24",0.0325
same,"UL54 (P08546) protein, numerical value of heatmap FIG. 6C","DE, timepoint 24",0.2154
same,"UL71 (P16823) protein, numerical value of heatmap FIG. 6C","DE, timepoint 24",0.2978
same,"UL78 (P16751) protein, numerical value of heatmap FIG. 6C","DE, timepoint 24",0.1834
same,"UL84 (P16727) protein, numerical value of heatmap FIG. 6C","DE, timepoint 24",0.0827
same,"UL96 (P16787) protein, numerical value of heatmap FIG. 6C","DE, timepoint 24",0.339
same,"UL97 (P16788) protein, numerical value of heatmap FIG. 6C","DE, timepoint 24",0.1685
same,"UL98 (P16789) protein, numerical value of heatmap FIG. 6C","DE, timepoint 24",0.1785
same,"UL102 (P16827) protein, numerical value of heatmap FIG. 6C","DE, timepoint 24",0.2917
same,"UL112/UL113 (P17151) protein, numerical value of heatmap FIG. 6C","DE, timepoint 24",0.3345
same,"UL114 (P16769) protein, numerical value of heatmap FIG. 6C","DE, timepoint 24",0.3025
same,"UL119/UL118 (P16739) protein, numerical value of heatmap FIG. 6C","DE, timepoint 24",0.07541
same,"UL128 (P16837) protein, numerical value of heatmap FIG. 6C","DE, timepoint 24",0.1472
same,"US8 (P09730) protein, numerical value of heatmap FIG. 6C","DE, timepoint 24",0.3317
same,"US9 (P09729) protein, numerical value of heatmap FIG. 6C","DE, timepoint 24",0.2308
same,"US12 (P09721) protein, numerical value of heatmap FIG. 6C","DE, timepoint 24",0.6397
same,"US13 (P09720) protein, numerical value of heatmap FIG. 6C","DE, timepoint 24",0.2174
same,"US14 (P09719) protein, numerical value of heatmap FIG. 6C","DE, timepoint 24",0.1903
same,"US18 (P69334) protein, numerical value of heatmap FIG. 6C","DE, timepoint 24",0.3161
same,"US22 (P09722) protein, numerical value of heatmap FIG. 6C","DE, timepoint 24",0.1701
same,"US23 (P09701) protein, numerical value of heatmap FIG. 6C","DE, timepoint 24",0.3435
same,"US24 (P09700) protein, numerical value of heatmap FIG. 6C","DE, timepoint 24",0.2973
same,"gB (P06473) protein, numerical value of heatmap FIG. 6C","DE, timepoint 24",0.05133
same,"sp|P09710|IR01_HCMVA (P09710) protein, numerical value of heatmap FIG. 6C","DE, timepoint 24",0.1514
same,"DBP (P17147) protein, numerical value of heatmap FIG. 6C","DE, timepoint 48",0.2386
same,"HELI (P16736) protein, numerical value of heatmap FIG. 6C","DE, timepoint 48",0.4106
same,"NEC2 (P16791) protein, numerical value of heatmap FIG. 6C","DE, timepoint 48",0.08567
same,"RIR1 (P16782) protein, numerical value of heatmap FIG. 6C","DE, timepoint 48",0.1065
same,"TRM1 (P16724) protein, numerical value of heatmap FIG. 6C","DE, timepoint 48",0.1188
same,"UL4 (P17146) protein, numerical value of heatmap FIG. 6C","DE, timepoint 48",0.07447
same,"UL26 (P16762) protein, numerical value of heatmap FIG. 6C","DE, timepoint 48",0.1073
same,"UL32 (P08318) protein, numerical value of heatmap FIG. 6C","DE, timepoint 48",0.03113
same,"UL34 (P16812) protein, numerical value of heatmap FIG. 6C","DE, timepoint 48",0.1018
same,"UL38 (P16779) protein, numerical value of heatmap FIG. 6C","DE, timepoint 48",0.7494
same,"UL44 (P16790) protein, numerical value of heatmap FIG. 6C","DE, timepoint 48",0.09556
same,"UL48 (P16785) protein, numerical value of heatmap FIG. 6C","DE, timepoint 48",0.04333
same,"UL54 (P08546) protein, numerical value of heatmap FIG. 6C","DE, timepoint 48",0.6243
